# Measurements taken from patent US20170129903A1, “COMPOUNDS COMPRISING 1,1a,2,5a-TETRAHYDROSPIRO[INDOLE-3,2a-PYRROLE]-2,5a-DIONE SYSTEM AS INHIBITORS P53-MDM2 PROTEIN-PROTEIN INTERACTION” (ADAMED SP. Z O.O., priority 2014, published 2017).
# What was measured:
# [1] = molecular target: T1, p53-Mdm2 interaction (N-terminal domain of Mdm2 protein, amino acids 1-111) (Homo sapiens, UniProt Q00987); assay: Fluorescence polarization (FP) binding assay of p53-Mdm2 interaction; conditions: FP assay, 130 nM Mdm2, FAM-labelled p53 peptide; Ki transformed from IC50 using Kenakin equation
# T1 construct: N-terminal domain of Mdm2 protein (amino acids 1-111)
# How it was run: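 N-terminal Mdm2 (aa 1-111) at 130 nM preincubated 15 min with compound (5% DMSO) in PBS, 0.1% CHAPS, 5 mM DTT, then […] FAM-labelled p53 peptide added. Polarization read after 90 min at room temperature (ex 470/em 520 nm). IC50 converted to Ki by Kenakin equation.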
# SJSA-1 xenograft = assay: In vivo efficacy in the SJSA-1 xenograft model in mice; conditions: compound 93 100 mg/kg p.o. q1dx14 vs control NaCl 0.9%, female Crl:SHO-Prkdc scid Hr hr mice, during and at the end of study
# Method: The experiment was conducted on female mice from the Crl:SHO-Prkdc^scidHr^hr strain. Mice were inoculated subcutaneously in the right flank with cancer cell line SJSA-1 in the amount of […] cells suspended in 100 μl HBSS: Matrigel matrix in a 3:1 ratio per mouse. On the 16th day after inoculation mice were divided into groups, so that in each group the mean tumor volume was similar and averaged around 160 mm^3. Two experiment groups were selected, each consisting of 5 mice: Control NaCl 0.9% and compound 93. The compound 93 was dissolved in 15% PEG400, 10% Cremophore EL, 75% H2O.
# Mice used in the experiment were administered per os (p.o.) with compounds or NaCl 0.9% in a q1dx14 schedule (14 doses, daily). During the course of experiment mice were weighed before each administration,—twice/thrice a week. Animal welfare was monitored daily.
# Change in tumor volume was monitored twice/thrice a week starting from the first day of administration. Tumor volume was calculated based on its length and width measured with an electronic calipers:
# V[mm^3]=d^2×D/2 • where d—width, D—length.
# The tumor volume in the compound 93 group was measured up to 68 days after inoculation (39 days after last administration). Results of the experiment were expressed as mean values of tumor volume ±SEM. All calculations and graphs were performed using GraphPad Prism 5 software. […]
# [2] = test system: SJSA-1 osteosarcoma cell line; assay: MTT cell viability assay; format: cell-based; conditions: Homo sapiens, SJSA-1, 72 h, 72 h incubation, average of 2-5 experiments
# How it was run: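 Cells exposed to serial compound dilutions for 72 h, then MTT (0.5 mg/ml final) added for 4 h; formazan dissolved in DMSO. IC50 from dose-response curves, 2-5 independent repeats.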
# T1 sequence (Q00987 1-111): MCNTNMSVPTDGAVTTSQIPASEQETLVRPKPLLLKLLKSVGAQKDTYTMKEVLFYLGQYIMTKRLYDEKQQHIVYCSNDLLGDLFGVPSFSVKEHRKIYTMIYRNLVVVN
Structure (SMILES),Ki [1] [nM],difference in body weight or welfare between experiment groups (SJSA-1 xenograft),IC50 [2] [µM]
"COc1ccc(-n2cc3c(c2C(C)C)C2(C(=O)Nc4cc(Cl)ccc42)N(c2cc(Cl)ccc2C)C3=O)c(OC)c1 (stereo not drawn) [Compound 93, 6-chloro-2′-(5-chloro-2-methylphenyl)-5′-(2,4-dimethoxyphenyl)-6′-(propan-2-yl)-1,2,3′,5′-tetrahydro-2′H-spiro[indole-3,1′-pyrrolo[3,4-c]pyrrole]-2,3′-dione]",3.8,No significant difference,0.42
"COc1ccc(NC(C)=O)cc1-n1cc2c(c1C(C)C)[C@@]1(C(=O)Nc3cc(Cl)ccc31)N(c1cc(Cl)ccc1C)C2=O [Compound 108, N-{3-[(3S)-6-chloro-2′-(5-chloro-2-methylphenyl)-2,3′-dioxo-6′-(propan-2-yl)-1,2,3′,5′-tetrahydro-2′H-spiro[indole-3,1′-pyrrolo[3,4-c]pyrrole]-5′-yl]-4-methoxyphenyl}acetamide]",1.6,,0.35
"COc1ccc(Cl)cc1N1C(=O)C(O)=C(c2ccccc2)C12C(=O)Nc1cc(Cl)ccc12 (stereo not drawn) [Compound 46, 6-chloro-1′-(5-chloro-2-methoxyphenyl)-4′-hydroxy-3′-phenyl-1,1′,2,5′-tetrahydrospiro[indole-3,2′-pyrrole]-2,5′-dione]",96,,32.3
"CC(C)c1[nH]nc2c1C1(C(=O)Nc3cc(Cl)ccc31)N(c1cc(Cl)ccc1O)C2=O (stereo not drawn) [Compound 24, 6-chloro-5′-(5-chloro-2-hydroxyphenyl)-3′-(propan-2-yl)-1,2,5′,6′-tetrahydro-2′H-spiro[indole-3,4′-pyrrolo[3,4-c]pyrazole]-2,6′-dione]",54,,33.5
